US20180141939A1, “SOLID FORMS OF A BET INHIBITOR” (Gilead Sciences, Inc., priority 2016, published 2018)
Where a name gives a salt, the structure may show the parent alone.

What was measured:
Assay type in all cases: physicochemical
[1] = Dynamic vapor sorption (DVS) moisture uptake; settings: for moisture uptake (DVS): at about 90% RH; for hygroscopicity (DVS analysis): classification in words
[2] = Relative stability of solid forms (competitive slurries); settings: for thermodynamic / physical stability of the solid form: statement in words
[3] = Aqueous vapor stress (high humidity stress, about 85% RH), deliquescence; settings: for deliquescence when stressed at about 85% RH: about 24 h where stated; for deliquescence at elevated RH: elevated relative humidity
Procedure: Crystalline forms of Compound I were analyzed by at least one of X-ray powder diffraction (XRPD), differential scanning calorimetry (DSC), thermogravimetric analysis (TGA), dynamic vapor sorption (DVS), solution proton nuclear magnetic resonance spectroscopy (^1H NMR), KF titration, and aqueous vapor stress experiments. XRPD patterns of Compound I were collected with a PANalytical X'Pert PRO MPD diffractometer using mostly the following experimental setting: 45 kV, 40 mA, Kα1=1.5406 Å, scan range 2-40° 2θ, step size 0.0167° 2θ. The DSC analysis was conducted on a TA Instruments Q2000 differential scanning calorimeter using 10° C./min heating rate over the 20° C. to 250° C. temperature range or above. The TGA analysis was conducted on a TA Instruments 2950 thermogravimetric analyzer using a 10° C./min heating rate over the 20° C. to 350° C. temperature range. ^1H NMR spectra were acquired with an Agilent DD2-400 spectrometer using DMSO-d6 with tetramethylsilane (TMS). KF analysis was performed using a Mettler Toledo DL39 Karl Fischer titrator with a Stromboli drying oven attachment set at about 110° C. Aqueous vapor stress experiments were conducted by placing a sample in a 85% RH jar for a specified duration.

[4] = Kinetic aqueous solubility / solubility in water of salt and co-crystal forms

| deliquescence when stressed at about 85% RH [3] | kinetic aqueous solubility [4] | Compound | other results |
| --- | --- | --- | --- |
| does not deliquesce |  | Cc1noc(C)c1-c1cc(C(O)(c2ccccn2)c2ccccn2)c2nc(C3CC3)[nH]c2c1 [Compound I napsylate Material A, (2-cyclopropyl-6-(3,5-dimethylisoxazol-4-yl)-1H-benzo[d]imidazol-4-yl)di(pyridin-2-yl)methanol] |  |
| no evidence of deliquescence | about 4 mg/mL | Cc1noc(C)c1-c1cc(C(O)(c2ccccn2)c2ccccn2)c2nc(C3CC3)[nH]c2c1 [Compound I sulfate Material A, (2-cyclopropyl-6-(3,5-dimethylisoxazol-4-yl)-1H-benzo[d]imidazol-4-yl)di(pyridin-2-yl)methanol] |  |
| no evidence of deliquescence | about 4 mg/mL | Cc1noc(C)c1-c1cc(C(O)(c2ccccn2)c2ccccn2)c2nc(C3CC3)[nH]c2c1 [Compound I sulfate Material B, (2-cyclopropyl-6-(3,5-dimethylisoxazol-4-yl)-1H-benzo[d]imidazol-4-yl)di(pyridin-2-yl)methanol] |  |
| does not deliquesce | about 15 mg/mL | Cc1noc(C)c1-c1cc(C(O)(c2ccccn2)c2ccccn2)c2nc(C3CC3)[nH]c2c1 [Compound I tartrate Material A, (2-cyclopropyl-6-(3,5-dimethylisoxazol-4-yl)-1H-benzo[d]imidazol-4-yl)di(pyridin-2-yl)methanol] |  |
| does not deliquesce |  | Cc1noc(C)c1-c1cc(C(O)(c2ccccn2)c2ccccn2)c2nc(C3CC3)[nH]c2c1 [Compound I xinafoate Form I, (2-cyclopropyl-6-(3,5-dimethylisoxazol-4-yl)-1H-benzo[d]imidazol-4-yl)di(pyridin-2-yl)methanol] |  |
|  | about 4 mg/mL | Cc1noc(C)c1-c1cc(C(O)(c2ccccn2)c2ccccn2)c2nc(C3CC3)[nH]c2c1 [mixture of Compound I sulfate Material A and Compound I sulf] [(2-cyclopropyl-6-(3,5-dimethylisoxazol-4-yl)-1H-benzo[d]imidazol-4-yl)di(pyridin-2-yl)methanol] |  |

Further lines, the compound ahead of its results:

| Compound | deliquescence when stressed at about 85% RH [3] | kinetic aqueous solubility [4] | other results |
| --- | --- | --- | --- |
| Cc1noc(C)c1-c1cc(C(O)(c2ccccn2)c2ccccn2)c2nc(C3CC3)[nH]c2c1 [Compound I Form I, (2-cyclopropyl-6-(3,5-dimethylisoxazol-4-yl)-1H-benzo[d]imidazol-4-yl)di(pyridin-2-yl)methanol] |  |  | moisture uptake (DVS) [1]: about 0.4%; hygroscopicity (DVS analysis) [1]: slightly hygroscopic; thermodynamic / physical stability of the solid form [2]: most thermodynamically stable form of Compound I |
| Cc1noc(C)c1-c1cc(C(O)(c2ccccn2)c2ccccn2)c2nc(C3CC3)[nH]c2c1 [Compound I Form II, (2-cyclopropyl-6-(3,5-dimethylisoxazol-4-yl)-1H-benzo[d]imidazol-4-yl)di(pyridin-2-yl)methanol] |  |  | thermodynamic / physical stability of the solid form [2]: unstable mono-IPA solvate that may convert to Compound I Form I at ambient conditions |
| Cc1noc(C)c1-c1cc(C(O)(c2ccccn2)c2ccccn2)c2nc(C3CC3)[nH]c2c1 [Compound I HCl Material B, (2-cyclopropyl-6-(3,5-dimethylisoxazol-4-yl)-1H-benzo[d]imidazol-4-yl)di(pyridin-2-yl)methanol] | evidence of deliquescence | about 6 mg/mL |  |
| Cc1noc(C)c1-c1cc(C(O)(c2ccccn2)c2ccccn2)c2nc(C3CC3)[nH]c2c1 [Compound I besylate Material A, (2-cyclopropyl-6-(3,5-dimethylisoxazol-4-yl)-1H-benzo[d]imidazol-4-yl)di(pyridin-2-yl)methanol] | does not show any signs of deliquescence | about 1 mg/mL |  |
| Cc1noc(C)c1-c1cc(C(O)(c2ccccn2)c2ccccn2)c2nc(C3CC3)[nH]c2c1 [Compound I edisylate Material A, (2-cyclopropyl-6-(3,5-dimethylisoxazol-4-yl)-1H-benzo[d]imidazol-4-yl)di(pyridin-2-yl)methanol] | does not show any signs of deliquescence | about 1 mg/mL |  |
| Cc1noc(C)c1-c1cc(C(O)(c2ccccn2)c2ccccn2)c2nc(C3CC3)[nH]c2c1 [Compound I gentisate Material A, (2-cyclopropyl-6-(3,5-dimethylisoxazol-4-yl)-1H-benzo[d]imidazol-4-yl)di(pyridin-2-yl)methanol] | does not deliquesce |  |  |
| Cc1noc(C)c1-c1cc(C(O)(c2ccccn2)c2ccccn2)c2nc(C3CC3)[nH]c2c1 [Compound I mesylate Material A, (2-cyclopropyl-6-(3,5-dimethylisoxazol-4-yl)-1H-benzo[d]imidazol-4-yl)di(pyridin-2-yl)methanol] |  | about 5 mg/mL | deliquescence at elevated RH [3]: shows evidence of deliquescence |
| Cc1noc(C)c1-c1cc(C(O)(c2ccccn2)c2ccccn2)c2nc(C3CC3)[nH]c2c1 [Compound I mesylate Material C, (2-cyclopropyl-6-(3,5-dimethylisoxazol-4-yl)-1H-benzo[d]imidazol-4-yl)di(pyridin-2-yl)methanol] |  | about 13 mg/mL | deliquescence at elevated RH [3]: a tendency to deliquesce |
| Cc1noc(C)c1-c1cc(C(O)(c2ccccn2)c2ccccn2)c2nc(C3CC3)[nH]c2c1 [Compound I mesylate Material G, (2-cyclopropyl-6-(3,5-dimethylisoxazol-4-yl)-1H-benzo[d]imidazol-4-yl)di(pyridin-2-yl)methanol] |  |  | moisture uptake (DVS) [1]: about 25%; hygroscopicity (DVS analysis) [1]: very hygroscopic |
| Cc1noc(C)c1-c1cc(C(O)(c2ccccn2)c2ccccn2)c2nc(C3CC3)[nH]c2c1 [Compound I phosphate Form II, (2-cyclopropyl-6-(3,5-dimethylisoxazol-4-yl)-1H-benzo[d]imidazol-4-yl)di(pyridin-2-yl)methanol] |  |  | hygroscopicity (DVS analysis) [1]: moderately hygroscopic; relative stability in competitive slurries with Compound I phosphate Form I ([2]; MeOH/IPA, MeOH/EtOAc or MeOH/IPAc, overnight slurry at RT): less stable than Compound I phosphate Form I at ambient conditions |
| Cc1noc(C)c1-c1cc(C(O)(c2ccccn2)c2ccccn2)c2nc(C3CC3)[nH]c2c1 [Compound I phosphate Form III, (2-cyclopropyl-6-(3,5-dimethylisoxazol-4-yl)-1H-benzo[d]imidazol-4-yl)di(pyridin-2-yl)methanol] |  |  | moisture uptake (DVS) [1]: about 0.7%; hygroscopicity (DVS analysis) [1]: slightly hygroscopic; solubility ([4]; water): ~6000 µg/mL |
| Cc1noc(C)c1-c1cc(C(O)(c2ccccn2)c2ccccn2)c2nc(C3CC3)[nH]c2c1 [Compound I phosphate Form IV, (2-cyclopropyl-6-(3,5-dimethylisoxazol-4-yl)-1H-benzo[d]imidazol-4-yl)di(pyridin-2-yl)methanol] |  |  | relative stability in competitive slurries with Compound I phosphate Form I ([2]; MeOH/EtOAc solvent system): complete conversion of Compound I phosphate Form IV to Compound I phosphate Form I |
| Cc1noc(C)c1-c1cc(C(O)(c2ccccn2)c2ccccn2)c2nc(C3CC3)[nH]c2c1 [Compound I phosphate Form V, (2-cyclopropyl-6-(3,5-dimethylisoxazol-4-yl)-1H-benzo[d]imidazol-4-yl)di(pyridin-2-yl)methanol] |  |  | relative stability in competitive slurries with Compound I phosphate Form I ([2]; MeOH/EtOAc solvent system): complete conversion of Compound I phosphate Form V to Compound I phosphate Form I |
| Cc1noc(C)c1-c1cc(C(O)(c2ccccn2)c2ccccn2)c2nc(C3CC3)[nH]c2c1 [Compound I tosylate Form I, (2-cyclopropyl-6-(3,5-dimethylisoxazol-4-yl)-1H-benzo[d]imidazol-4-yl)di(pyridin-2-yl)methanol] | does not show any evidence of deliquescence | about 3 mg/mL |  |
